Source: patent US8685963B2, “Compounds that inhibit NFκB and BACE1 activity” (The Trustees of Columbia University in the city of New York, priority 2008, dated 2014)
“Also recorded” adds a separate entry of the source.

Experiments:
[1] = target: T1, BACE1 (Homo sapiens, UniProt P56817); assay: cell-based BACE1 assay (sAPPβ modified ELISA) in SY5Y-BACEGFP-SEAPAPPwt cells; details: for IC50: 8-point dose-response (30-0.01 μM)
T1 construct: GFP; expressed in transfected cells; host or cells: SY5Y cells (SY5Y-BACEGFP-SEAPAPPwt), stably transfected
T1 sequence (P56817 46-501): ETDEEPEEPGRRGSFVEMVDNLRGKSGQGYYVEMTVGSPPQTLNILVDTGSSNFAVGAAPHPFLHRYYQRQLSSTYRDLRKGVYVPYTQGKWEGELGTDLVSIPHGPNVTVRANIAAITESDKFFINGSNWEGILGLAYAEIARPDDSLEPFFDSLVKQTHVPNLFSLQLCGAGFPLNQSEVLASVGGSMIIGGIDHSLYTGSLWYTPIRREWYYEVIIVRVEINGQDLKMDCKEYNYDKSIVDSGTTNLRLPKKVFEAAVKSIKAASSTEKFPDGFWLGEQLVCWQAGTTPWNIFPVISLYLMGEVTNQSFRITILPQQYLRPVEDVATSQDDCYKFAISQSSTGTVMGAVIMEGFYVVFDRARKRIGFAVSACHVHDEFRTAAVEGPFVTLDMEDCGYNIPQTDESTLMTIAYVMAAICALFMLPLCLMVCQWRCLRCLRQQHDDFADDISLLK
Protocol: FIG. 8 depicts a sAPPβ assay utilized to identify inhibitors of BACE1. The assay utilizes SY5Y cells stably overexpressing BACE-GFP and SEAP-APPwt. Cells are incubated with a candidate compound for 6 hours prior to harvesting media. BACE1-mediated cleavage of APP results in the release of sAPPβ into the media. α-secretase, a competing enzyme that is non-amyloidogenic, also cleaves APP to release […]. Using an sAPPβ-specific antibody (sβwt), SEAP-sAPPβ is specifically captured in a modified ELISA assay. Detection is achieved by addition of the fluorescent alkaline phosphatase substrate, 4-methylumbelliferyl phosphate (4-MUP).
FIG. 10A-B depicts SAR studies of N-(quinolin-8-yl)benzenesulfonamides. 28 full and partial hits, shown in (A) for compounds 1-26 and (B) for compounds 27 and 28, from the targeted screen of N-(quinolin-8-yl)benzenesulfonamides were characterized in SY5Y-BACEGFP-SEAPAPPwt cells using the cell-based BACE1 assay. All compounds were tested at 8 concentrations (30, 10, 3, 1, 0.3, 0.1, 0.03, and 0.01 μM), and data points were analyzed with Origin software and fitted using a logistic model for IC50 determination.
A cell-based modified ELISA assay for measuring sAPPβ, the secreted ectodomain of β-amyloid precursor protein (APP) following […] (BACE1) cleavage, was used to identify a class of compounds that interfered with the first step of sAPPβ generation. This assay has been described in International Application PCT/US2007/015938 (Published as International Publication No. WO 08/008,463), which is herein incorporated in its entirety for all purposes.
The SY5Y-BACEGFP-SEAPAPPwt cell based assay was developed to discover novel small molecule modulators of BACE1 activity. SY5Y cells were stably transfected with GFP-tagged BACE1 (BACE-GFP) and secreted alkaline phosphatase (SEAP)-tagged wildtype APP (SEAP-APPwt). BACE1 cleavage of SEAP-APPwt results in secretion into the media of SEAP-tagged sAPPβ, which is collected and specifically captured using an sAPPβ cleavage site-specific antibody (sβwt). After washing, the fluorescent alkaline phosphatase substrate 4-methylumbelliferyl phosphate (4-MUP) is used to detect the captured SEAP-sAPPβ (FIG. 8).
176 compounds were tested in the primary screen (FIG. 9). Briefly, each compound (10 mM stock in DMSO) was diluted 1:25 in DMSO and loaded onto 96-well plates to generate a 400 μM stock plate. 1 μl of each compound was then diluted 1:200 with cell culture media (0.5% DMSO concentration) in two separate 96-well plates for a final screening concentration of 2 μM. 150 μl of media containing compound was then transferred onto SY5Y-BACEGFP-SEAPAPPwt cells in 96-well format, and the BACE1 assay was performed as described previously. The primary screen was conducted in duplicate. A parallel screen was conducted at 10 μM concentration, also in duplicate. […] Percent inhibition of the fluorescence signal was calculated as 100×[DMSO control−compound]/DMSO control The majority of data points were clustered between −25% and 25% inhibition of sAPPβ fluorescence signal (FIG. 9A). The Z′ factors for all 4 96-well plates used in the primary screen were above 0.7 (data not shown). The threshold for hit selection was set at 3 standard deviations, or 59.76% inhibition, yielding 6 small molecule hits and a hit rate of 3.41% (FIG. 9B).
28 full and partial hits were characterized in 8-point dose-response experiments for IC50 determination in SY5Y-BACEGFP-SEAPAPPwt cells (FIG. 10).

[2] = tested on: Aβ40; assay: Aβ40 / sAPPβ levels in Lenti-APPsw infected primary cortical neurons; type: cell-based, mouse
Protocol: FIG. 11A-B depicts Lentiviral-mediated transduction of APPsw in primary neurons. Primary cortical neurons were harvested from wild-type P0 mice and cultured according to established protocols. Lentivirus harboring human Swedish mutant APP (Lenti-APPsw) was packaged using ViraPower Lentiviral Packaging mix (Invitrogen) according to the manufacturer's protocol. DIV-14 neurons were incubated for 24 hours with primary culture media containing the indicated volume (in μl) of virus (LV-1 and LV-2 denote 2 separate batches of virus, 0 denotes no virus was used). After infection, neurons were incubated for 72 hours with primary culture media. Media was collected for Aβ40 ELISA (Bio Source), and cell lysates were probed with APPCT antibody to visualize transduced full-length APP. (A) Bar graph depicting results; (B) Assay results.
FIG. 13A-B depicts the effect of CU-264 on Aβ expressing primary cortical neuron cultures from wild-type mice transformed with lentivirus harboring APPsw. […] At 10 μm, CU-264 increased Aβ levels. (A) Bar graph depicting results; (B) Assay results.
The previously described hit was further analyzed in physiologically relevant systems, e.g. primary neurons and Alzheimer's model mice. Two complementary neuronal cell systems were employed to test the effects of candidate compounds on various aspects of APP processing: cultured mouse cortical neurons (postnatal day 0) infected with recombinant lentivirus carrying human APPsw (Lenti-APPsw; FIG. 11); and cultured cortical neurons prepared from Tg2576 mice (carrying human APPsw transgene under the control of the PrP promoter). Lenti-APPsw infected cortical neurons can be prepared in a relatively large scale, but suffer from variability in lentiviral infection efficiency, resulting in variable levels of APP expression. In contrast, cortical neurons derived from Tg2576 provide constant APP expression. However, neuronal yield is generally much lower, since only half the pups will contain the transgene when heterozygote crossbreeds were conducted. Therefore, Initial characterization experiments were performed using cortical neurons infected with Lenti-APPsw.
Lenti-APPsw infected primary cortical neurons were used for the initial round of physiological experiments. Primary cortical neurons were harvested from wild-type P0 pups using established protocols.
The Lenti-APPsw vector was co-transfected into HEK293 T cells with ViraPower packaging mix (Invitrogen) to generate the lentivirus. Lentiviral-mediated transduction of APPsw in primary neurons was performed by adding neuron primary culture media containing the lentiviral particles to wild-type DIV-14 primary neurons (FIG. 11). After 24 hours, neurons were incubated with media for 72 hours prior to collecting for Aβ40 measurement. Two batches of virus (LV-1 and LV-2) were tested, showing that there is batch-to-batch variation in the viral titer.
Using this experimental paradigm, CU-264 was tested at 10 and 2 μM concentrations to examine the sAPPβ- and Aβ-lowering activity of the compound. The protocol was modified slightly to allow for 24-hour compound treatment. DIV-14 wild-type primary neurons (FIG. 12) cultured on 6-well plates were incubated for 24 hours with primary culture media containing lentiviral particles. After infection, fresh media was mixed in a 1:1 ratio with conditioned media collected prior to lentiviral infection, and applied to the cells for 48 hours to allow for APP expression. […]

Compound	IC50 [1]	further results
O=S(=O)(Nc1cccc2cccnc12)c1cccc2ccccc12 [CU-131]	6.46 µM	
O=S(=O)(Nc1cc(Br)cc2cccnc12)c1cccc2ccccc12 [CU-138]	9.51 µM	
O=S(=O)(Nc1cccc2cccnc12)c1cccs1 [CU-150]	8.03 µM	
COc1ccc(S(=O)(=O)Nc2cccc3cccnc23)cc1 [CU-151]	5.92 µM	
O=[N+]([O-])c1ccc(S(=O)(=O)Nc2cccc3cccnc23)cc1 [CU-152]	4.63 µM	
O=[N+]([O-])c1ccccc1S(=O)(=O)Nc1cccc2cccnc12 [CU-153]	1.58 µM	
O=S(=O)(Nc1cccc2cccnc12)c1ccc2ccccc2c1 [CU-155]	2.2 µM	
O=S(=O)(Nc1cccc2cccnc12)c1cccc2cccnc12 [CU-156]	4.23 µM	
O=S(=O)(Nc1cc(Br)cc2cccnc12)c1ccccc1 [CU-166]	13.4 µM	
Cc1ccc(S(=O)(=O)Nc2cc(Br)cc3cccnc23)cc1 [CU-167]	1.09 µM	
O=S(=O)(Nc1cc(Br)cc2cccnc12)c1cccc2cccnc12 [CU-168]	17.2 µM	
Cc1ccc(S(=O)(=O)Nc2cccc3ccc(C)nc23)cc1 [CU-225]	3.79 µM	
Nc1ccccc1S(=O)(=O)Nc1cccc2cccnc12 [CU-242]	3.82 µM	
COc1ccc(S(=O)(=O)Nc2cccc3cccnc23)c([N+](=O)[O-])c1 [CU-261]	1.92 µM	
O=S1(=O)Nc2c(ccc3cccnc23)-c2cc(C(F)(F)F)ccc21 [CU-262]	0.82 µM	potency for sAPPβ reduction (in words) [1]: sub-micromolar
Nc1cc(C(F)(F)F)ccc1S(=O)(=O)Nc1cccc2cccnc12 [CU-264]	0.53 µM	potency for sAPPβ reduction (in words) [1]: most potent analog; also recorded: sub-micromolar; also recorded: most potent compound; Aβ40 levels in more physiological assay [2]: raising; sAPPβ levels in more physiological assay [2]: raising; Aβ40 levels in primary neurons ([2]; 2 μM CU-264, 24-hour treatment): does not reduce; Aβ levels in primary neurons ([2]; 10 μM, 24-hour treatment): increased; Aβ40 in primary neurons ([2]; tested at 10 and 2 μM, 24-hour treatment): did not reduce
O=[N+]([O-])c1cc(C(F)(F)F)ccc1S(=O)(=O)Nc1cccc2cccnc12 [CU-265]	2.95 µM	
COc1cc(NS(=O)(=O)c2ccccc2[N+](=O)[O-])c2ncccc2c1 [CU-268]	8.11 µM	
COc1ccc(S(=O)(=O)Nc2cccc3cccnc23)c(N)c1 [CU-271]	2.74 µM	
Cc1ccc2cccc(NS(=O)(=O)c3ccccc3[N+](=O)[O-])c2n1 [CU-273]	12.4 µM	
Cc1ccc2cccc(NS(=O)(=O)c3ccccc3N)c2n1 [CU-274]	11.1 µM	
COc1ccc(S(=O)(=O)Nc2cccc3ccc(C)nc23)c(N)c1 [CU-278]	11.5 µM	
Cc1ccc2cccc(NS(=O)(=O)c3ccc(C(F)(F)F)cc3[N+](=O)[O-])c2n1 [CU-280]	5.51 µM	
Cc1ccc2cccc(NS(=O)(=O)c3ccc(C(F)(F)F)cc3N)c2n1 [CU-281]	3.28 µM	
Cc1ccc2ccc3c(c2n1)NS(=O)(=O)c1ccc(C(F)(F)F)cc1-3 [CU-282]	1.11 µM	
COc1cc(NS(=O)(=O)c2ccc3ccccc3c2)c2ncccc2c1 [CU-294]	3.75 µM	
COc1cc(NS(=O)(=O)c2cccc3ccccc23)c2ncccc2c1 [CU-295]	3.63 µM	
